Activity calls are given as the source filed them. The calls are words filed in the database; no cut-off is given here. Bounds are passed on as bounds.

Among the data in ChEMBL document CHEMBL4152232, “Design, synthesis and pharmacological evaluation of ALK and Hsp90 dual inhibitors bearing resorcinol and 2,4-diaminopyrimidine motifs” (Eur J Med Chem, 2018) are IC50 and inhibition values, retold here.

For test [1], the system named is NCI-H3122. The test is described as follows: Antiproliferative activity against human NCI-H3122 cells after 72 hrs by SRB assay. Format: functional, cell-based. The note with it: NCI-H3122, 72 h.
In test [2] the target is ALK tyrosine kinase receptor (Homo sapiens, UniProt Q9UM73). The test is described as follows: Inhibition of recombinant ALK (unknown origin) using poly (Glu,Tyr)4:1 as substrate after 60 mins by ELISA. For orientation: ELISA stands for enzyme-linked immunosorbent assay.
ALK tyrosine kinase receptor (Homo sapiens, UniProt Q9UM73), sequence (Q9UM73 whole entry): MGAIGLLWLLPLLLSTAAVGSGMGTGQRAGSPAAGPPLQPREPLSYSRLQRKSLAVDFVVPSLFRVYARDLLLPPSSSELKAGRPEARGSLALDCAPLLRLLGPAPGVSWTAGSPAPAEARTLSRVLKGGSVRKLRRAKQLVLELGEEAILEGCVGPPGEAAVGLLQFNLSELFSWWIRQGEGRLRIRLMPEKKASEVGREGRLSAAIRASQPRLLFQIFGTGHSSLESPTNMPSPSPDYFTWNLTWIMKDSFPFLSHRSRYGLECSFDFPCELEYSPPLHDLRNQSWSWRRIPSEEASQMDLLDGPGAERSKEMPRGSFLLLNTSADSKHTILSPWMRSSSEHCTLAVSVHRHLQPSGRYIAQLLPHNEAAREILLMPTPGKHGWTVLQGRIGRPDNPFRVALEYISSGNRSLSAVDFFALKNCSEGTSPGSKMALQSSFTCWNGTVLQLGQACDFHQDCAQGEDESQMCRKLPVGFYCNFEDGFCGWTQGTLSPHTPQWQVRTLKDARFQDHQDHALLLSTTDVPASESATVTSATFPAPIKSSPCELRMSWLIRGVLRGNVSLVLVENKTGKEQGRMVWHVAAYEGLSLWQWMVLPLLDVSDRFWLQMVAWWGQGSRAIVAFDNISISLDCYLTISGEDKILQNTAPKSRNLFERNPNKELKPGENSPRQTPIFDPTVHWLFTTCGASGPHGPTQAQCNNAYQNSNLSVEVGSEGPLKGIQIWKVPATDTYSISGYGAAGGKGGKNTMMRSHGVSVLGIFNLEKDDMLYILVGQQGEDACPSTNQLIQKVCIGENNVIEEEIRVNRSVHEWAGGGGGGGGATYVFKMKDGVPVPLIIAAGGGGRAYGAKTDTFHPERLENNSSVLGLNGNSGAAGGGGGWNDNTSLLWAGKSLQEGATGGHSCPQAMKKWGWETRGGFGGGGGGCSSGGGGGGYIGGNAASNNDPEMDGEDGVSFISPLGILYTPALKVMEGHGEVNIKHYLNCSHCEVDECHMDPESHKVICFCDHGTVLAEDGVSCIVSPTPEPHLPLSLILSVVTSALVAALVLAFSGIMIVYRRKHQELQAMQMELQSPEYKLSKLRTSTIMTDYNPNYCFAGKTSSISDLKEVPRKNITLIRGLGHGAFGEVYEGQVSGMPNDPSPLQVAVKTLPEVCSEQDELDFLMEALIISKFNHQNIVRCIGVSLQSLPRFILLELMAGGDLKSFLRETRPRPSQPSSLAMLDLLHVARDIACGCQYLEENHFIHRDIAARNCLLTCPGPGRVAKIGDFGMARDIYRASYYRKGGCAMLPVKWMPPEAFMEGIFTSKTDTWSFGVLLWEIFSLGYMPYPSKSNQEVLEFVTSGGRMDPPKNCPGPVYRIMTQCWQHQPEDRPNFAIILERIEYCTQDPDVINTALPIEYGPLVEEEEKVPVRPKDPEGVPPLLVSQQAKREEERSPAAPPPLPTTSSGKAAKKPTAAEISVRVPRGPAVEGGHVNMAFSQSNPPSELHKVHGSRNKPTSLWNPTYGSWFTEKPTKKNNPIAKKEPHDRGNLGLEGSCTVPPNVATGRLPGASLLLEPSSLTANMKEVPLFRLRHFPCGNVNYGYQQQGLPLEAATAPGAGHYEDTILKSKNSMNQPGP
The target in test [3] is Heat shock protein HSP 90-alpha (Homo sapiens, UniProt P07900). The test is described as follows: Inhibition of FITC-labeled geldanamycin binding to recombinant HSP90alpha (unknown origin) after 1 hr by fluorescence polarization assay. On the technique in general: In fluorescence polarisation assays a small probe gives low polarisation when free and higher when bound to something large.

In test [4] the test system is U-87 MG. Kind of test: Antiproliferative activity against human U87MG cells after 72 hrs by SRB assay. The format is functional, cell-based, U-87MG ATCC.
For test [5], the system named is BT-474. The test is described as follows: Antiproliferative activity against human BT474 cells after 72 hrs by SRB assay. Format: functional, cell-based. The note with it: BT-474, 72 h. Background: Sulforhodamine B stains cellular protein and so reports cell mass.
Test [6] has as its system NCI-N87. Kind of test: Antiproliferative activity against human NCI-N87 cells after 72 hrs by SRB assay. The format is functional, cell-based. The conditions noted are these: NCI-N87, 72 h.
For test [7], the system named is EBC-1. The test is described as follows: Antiproliferative activity against human EBC1 cells after 72 hrs by SRB assay. The format is functional, cell-based. The conditions noted are these: EBC-1, 72 h.
Test [8] concerns DU-145. The test is described as follows: Antiproliferative activity against human DU145 cells after 72 hrs by SRB assay. The format is functional, cell-based. The note with it: DU-145, 72 h.
The nature of test [9]: Antiproliferative activity against human EBC1/SR cells after 72 hrs by SRB assay. The format is functional, cell-based.
Test [10] addresses ALK tyrosine kinase receptor (Homo sapiens, UniProt Q9UM73, G1202R). The test is described as follows: Inhibition of ALK G1202R mutant (unknown origin) using poly (Glu,Tyr)4:1 as substrate after 60 mins by ELISA.
Test [11] deals with NCI-H460. The test is described as follows: Antiproliferative activity against human NCI-H460 cells after 72 hrs by SRB assay. The format is functional, cell-based. The note with it: NCI-H460, 72 h.
The target in test [12] is ALK tyrosine kinase receptor (Homo sapiens, UniProt Q9UM73, L1196M). Kind of test: Inhibition of ALK L1196M mutant (unknown origin) using poly (Glu,Tyr)4:1 as substrate after 60 mins by ELISA.
ALK tyrosine kinase receptor (Homo sapiens, UniProt Q9UM73, L1196M), sequence (Q9UM73 19-1620 L1196M limits assumed): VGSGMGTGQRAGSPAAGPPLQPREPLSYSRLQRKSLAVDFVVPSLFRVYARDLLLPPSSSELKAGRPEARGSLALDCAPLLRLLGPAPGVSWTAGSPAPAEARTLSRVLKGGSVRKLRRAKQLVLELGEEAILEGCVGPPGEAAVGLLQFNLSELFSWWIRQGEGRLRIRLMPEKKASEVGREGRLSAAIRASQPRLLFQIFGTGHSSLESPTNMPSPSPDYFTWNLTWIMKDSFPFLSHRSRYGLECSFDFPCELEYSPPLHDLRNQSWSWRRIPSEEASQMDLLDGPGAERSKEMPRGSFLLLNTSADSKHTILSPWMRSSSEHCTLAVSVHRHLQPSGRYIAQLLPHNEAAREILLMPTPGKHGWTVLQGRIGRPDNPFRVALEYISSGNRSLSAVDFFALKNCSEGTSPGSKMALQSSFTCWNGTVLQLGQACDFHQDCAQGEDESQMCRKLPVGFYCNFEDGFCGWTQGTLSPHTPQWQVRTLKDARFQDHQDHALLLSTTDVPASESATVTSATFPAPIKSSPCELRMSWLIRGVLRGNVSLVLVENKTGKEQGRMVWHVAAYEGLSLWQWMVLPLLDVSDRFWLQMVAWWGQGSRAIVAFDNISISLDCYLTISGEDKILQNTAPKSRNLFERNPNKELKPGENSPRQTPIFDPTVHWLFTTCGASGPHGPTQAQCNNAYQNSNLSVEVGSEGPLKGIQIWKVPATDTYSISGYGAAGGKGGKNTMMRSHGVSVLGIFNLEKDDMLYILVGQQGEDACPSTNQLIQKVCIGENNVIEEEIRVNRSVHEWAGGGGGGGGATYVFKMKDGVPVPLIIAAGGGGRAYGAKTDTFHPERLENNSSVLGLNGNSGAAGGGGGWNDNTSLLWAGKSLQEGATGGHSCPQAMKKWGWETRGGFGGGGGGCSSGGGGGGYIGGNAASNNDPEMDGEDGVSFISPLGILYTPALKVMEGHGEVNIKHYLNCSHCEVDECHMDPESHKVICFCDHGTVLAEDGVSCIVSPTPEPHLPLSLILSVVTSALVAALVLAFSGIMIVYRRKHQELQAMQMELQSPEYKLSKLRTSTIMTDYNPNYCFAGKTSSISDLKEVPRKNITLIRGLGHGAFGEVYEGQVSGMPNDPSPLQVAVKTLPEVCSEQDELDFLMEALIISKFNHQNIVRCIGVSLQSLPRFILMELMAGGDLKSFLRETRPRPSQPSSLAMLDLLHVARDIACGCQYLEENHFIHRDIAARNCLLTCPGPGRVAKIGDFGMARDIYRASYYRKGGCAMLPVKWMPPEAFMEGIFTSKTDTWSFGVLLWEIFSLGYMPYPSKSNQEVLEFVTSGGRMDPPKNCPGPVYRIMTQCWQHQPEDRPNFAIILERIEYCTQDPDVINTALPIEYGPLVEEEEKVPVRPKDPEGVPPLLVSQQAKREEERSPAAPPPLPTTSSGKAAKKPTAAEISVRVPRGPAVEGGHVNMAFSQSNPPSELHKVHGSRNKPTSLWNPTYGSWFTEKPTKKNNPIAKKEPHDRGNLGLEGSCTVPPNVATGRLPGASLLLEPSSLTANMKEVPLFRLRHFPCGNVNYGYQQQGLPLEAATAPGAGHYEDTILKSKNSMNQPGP
Test [13] deals with HCT-116. The test is described as follows: Antiproliferative activity against human HCT116 cells after 72 hrs by SRB assay. The format is functional, cell-based. The conditions noted are these: HCT-116, 72 h.
For test [14], the system named is MDA-MB-231. Kind of test: Antiproliferative activity against human MDA-MB-231 cells after 72 hrs by SRB assay. Format: functional, cell-based. The note with it: MDA-MB-231, 72 h.
For test [15], the system named is A549. The test is described as follows: Antiproliferative activity against human A549 cells after 72 hrs by SRB assay. The note with it: A549, 72 h. The format is functional, cell-based.
The target of test [16] is T1, Heat shock protein HSP90 (Homo sapiens) (UniProt P07900+P08238). The test is described as follows: Inhibition of Hsp90 in human NCI-H3122 cells assessed as decrease in ALK phosphorylation at Tyr1278 residues up to 1000 nM after 24 hrs by Western blot analysis. Format: cell-based.
In test [17] the target is T1, Heat shock protein HSP90 (Homo sapiens). Kind of test: Inhibition of Hsp90 in human NCI-H3122 cells assessed as upregulation of Hsp70 after 24 hrs by Western blot analysis. Format: cell-based.
The target is the same in test [18]. Kind of test: Inhibition of Hsp90 in human NCI-H3122 cells assessed as decrease in ERK1/2 phosphorylation up to 1000 nM after 24 hrs by Western blot analysis. Format: cell-based.
Test [19] shares this target. Kind of test: Inhibition of Hsp90 in human NCI-H3122 cells assessed as decrease in AKT phosphorylation at Ser473 residues up to 1000 nM after 24 hrs by Western blot analysis. The format is cell-based.

ALK tyrosine kinase receptor (Homo sapiens, UniProt Q9UM73, G1202R), sequence (Q9UM73 19-1620 G1202R limits assumed): as the sequence (Q9UM73 19-1620 L1196M limits assumed) above, with M1178L, G1184R counted along it

For `CCNC(=O)c1noc(-c2cc(C(C)C)c(O)cc2O)c1-c1ccc(C(=O)NCC(=O)Nc2ccc(OC)c(Nc3ncc(Cl)c(Nc4ccccc4S(=O)(=O)C(C)C)n3)c2)cc1`, the values for the IC50 in test [1], in [2] and in test [3] were 159 nM, 83.2 nM and above 1000 nM, respectively.

With `CCNC(=O)c1noc(-c2cc(C(C)C)c(O)cc2O)c1-c1ccc(CNCC(=O)Nc2ccc(OC)c(Nc3ncc(Cl)c(Nc4ccccc4S(=O)(=O)C(C)C)n3)c2)cc1`, the IC50 (in general, the concentration that inhibits the measured activity by half) in test [1] is 57 nM; in test [2], 24.2 nM; in test [3], 260 nM.

In the case of `CCNC(=O)c1noc(-c2cc(C(C)C)c(O)cc2O)c1-c1ccc(CNCC(=O)Nc2cccc(Nc3ncc(Cl)c(Nc4ccccc4S(=O)(=O)C(C)C)n3)c2)cc1`, the IC50 in test [1] turned out to be 141 nM; in [2], 10.3 nM; in test [3] it was 370 nM.

With `CCNC(=O)c1noc(-c2cc(C(C)C)c(O)cc2O)c1-c1ccc(CN2CCN(CC(=O)NCC(=O)Nc3ccc(OC)c(Nc4ncc(Cl)c(Nc5ccccc5S(=O)(=O)C(C)C)n4)c3)CC2)cc1`, the IC50 in test [4] turned out to be 205 nM; in test [5], 60 nM; in test [6], 230 nM; in test [7] it was 163 nM; in [8], 367 nM; in test [1] it was 46 nM. The IC50 was 495 nM in test [9]; 36.4 nM in [10]; 624 nM in test [11]; 8.7 nM in test [12]; 6.9 nM in test [2]; 84.8 nM in test [3]. For the same molecule, the results for the IC50 in test [13], in test [14] and in test [15] were 193 nM, 135 nM and 613 nM, respectively.

`COc1ccc(NC(=O)CNC(=O)CN2CCN(Cc3ccc4c(c3)CN(C(=O)c3cc(C(C)C)c(O)cc3O)C4)CC2)cc1Nc1ncc(Cl)c(Nc2ccccc2S(=O)(=O)C(C)C)n1`: the IC50 in test [1] worked out at 175 nM; in test [2], 4.1 nM; in test [3], 47 nM.

In the case of `COc1ccc(NC(=O)CNC(=O)c2noc(-c3cc(C(C)C)c(O)cc3O)c2-c2ccc(CN3CCOCC3)cc2)cc1Nc1ncc(Cl)c(Nc2ccccc2S(=O)(=O)C(C)C)n1`, the IC50 was 587 nM in test [1], 108 nM in [2] and above 1000 nM in test [3].

For `COc1ccc(Nc2ncc(Cl)c(Nc3ccccc3S(=O)(=O)C(C)C)n2)cc1NC(=O)CNC(=O)c1noc(-c2cc(C(C)C)c(O)cc2O)c1-c1ccc(CN2CCOCC2)cc1`, the IC50 in test [1] was 319 nM; in test [2] it was 958 nM; in [3] it was above 1000 nM.

On to `CC(C)c1cc(-c2onc(C(=O)NCC(=O)Nc3cccc(Nc4ncc(Cl)c(Nc5ccccc5S(=O)(=O)C(C)C)n4)c3)c2-c2ccc(CN3CCOCC3)cc2)c(O)cc1O`, for which the IC50 in test [1] was 444 nM; in test [2], 53.7 nM; in test [3] it was above 1000 nM.

`COc1ccc(NC(=O)CN2CCN(Cc3ccc4c(c3)CN(C(=O)c3cc(C(C)C)c(O)cc3O)C4)CC2)cc1Nc1ncc(Cl)c(Nc2ccccc2S(=O)(=O)C(C)C)n1`: the inhibition entry in test [16], in test [18] and in [19] was “Active” in each case. Further, in test [17], the inhibition entry was “Dose-dependent effect”. The IC50 in test [1] worked out at 13 nM; in test [12], 6 nM; in test [2] it was 9.8 nM; in [3] it was 40 nM.

Consider `CC(C)c1cc(C(=O)N2Cc3ccc(CN4CCN(C)CC4)cc3C2)c(O)cc1O` [ONALESPIB], for which the IC50 in test [1] is 52 nM; in test [3], 13.6 nM.

Take `CCNC(=O)c1noc(-c2cc(C(C)C)c(O)cc2O)c1-c1ccc(C(=O)N2CCN(CC(=O)Nc3cccc(Nc4ncc(Cl)c(Nc5ccccc5S(=O)(=O)C(C)C)n4)c3)CC2)cc1`: the IC50 in test [1] worked out at 113 nM; in [2] it was 22.9 nM; in test [3], 123 nM.

For the molecule `CCNC(=O)c1noc(-c2cc(C(C)C)c(O)cc2O)c1-c1ccc(CN2CCN(CC(=O)Nc3ccc(OC)c(Nc4ncc(Cl)c(Nc5ccccc5S(=O)(=O)C(C)C)n4)c3)CC2)cc1`, the IC50 stood at 237 nM in [4]; 52 nM in [5]; 503 nM in [6]; 47 nM in test [7]; 228 nM in [8]; 11 nM in test [1]. Also, the IC50 in test [9] worked out at 215 nM; in test [10], 85.5 nM; in test [11], 235 nM; in test [12], 6.2 nM; in [2], 17.3 nM; in test [3], 100 nM. Moreover, the IC50 in [13] came out at 82 nM; in test [14] it was 104 nM; in test [15], 287 nM. Besides, the inhibition entry in [16], in test [18] and in [19] was “Active” throughout. Further, the inhibition result in [17] was “Dose-dependent effect”.

Regarding `CCNC(=O)c1noc(-c2cc(C(C)C)c(O)cc2O)c1-c1ccc(CN2CCOCC2)cc1` [LUMINESPIB], the IC50 came out at 31 nM in [4]; 14 nM in [5]; 83 nM in test [6]; 13 nM in [7]; 21 nM in test [8]; 12.4 nM in [1]. The 50% inhibitory concentration (IC50) worked out at 30 nM in [9]; 23 nM in test [11]; 16 nM in test [13]; 21 nM in test [14]; 60 nM in test [15].
